In patent US20240165244A1 (Prelude Therapeutics Incorporated, priority 2022, published 2024):

Tests used:
SMARCA2 = molecular target: T1, SMARCA2 (Homo sapiens, UniProt P51531); test: SMARCA2 HiBiT degradation assay in HeLa cells; assay type: cell-based; conditions: 18 hours, highest concentration 10 μM
T1 construct: SMARCA2-HiBiT knock-in Hela monoclonal cell (CS302366); host or cells: HeLa monoclonal cells with heterozygous HiBiT knock-in at the endogenous SMARCA2 locus
Summary of the method: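 Degradation was read as Nano-Glo HiBiT lytic luminescence (30-60 min, RT) and fitted to curves. Compounds in 3-fold dilutions up to 10 μM were applied for 18 h at 37 °C. Cells were 2500/well monoclonal HeLa with a heterozygous C-terminal HiBiT tag on SMARCA2.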

SMARCA4 = molecular target: T2, SMARCA4 (Homo sapiens, UniProt P51532); test: SMARCA4 HiBiT degradation assay in HeLa cells; assay type: cell-based; conditions: 18 hours, highest concentration 10 μM
T2 construct: SMARCA4-HiBiT knock-in Hela monoclonal cell (CS3023226); host or cells: HeLa monoclonal cells with heterozygous HiBiT knock-in at the endogenous SMARCA4 locus
Summary of the method: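 HeLa monoclonal cells with HiBiT knocked into SMARCA4 were seeded at 2500 cells/well, dosed with compound and incubated 18 hours at 37° C. HiBiT signal reported remaining SMARCA4 protein, and values came from curve fitting.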

T2 sequence (P51532 whole entry): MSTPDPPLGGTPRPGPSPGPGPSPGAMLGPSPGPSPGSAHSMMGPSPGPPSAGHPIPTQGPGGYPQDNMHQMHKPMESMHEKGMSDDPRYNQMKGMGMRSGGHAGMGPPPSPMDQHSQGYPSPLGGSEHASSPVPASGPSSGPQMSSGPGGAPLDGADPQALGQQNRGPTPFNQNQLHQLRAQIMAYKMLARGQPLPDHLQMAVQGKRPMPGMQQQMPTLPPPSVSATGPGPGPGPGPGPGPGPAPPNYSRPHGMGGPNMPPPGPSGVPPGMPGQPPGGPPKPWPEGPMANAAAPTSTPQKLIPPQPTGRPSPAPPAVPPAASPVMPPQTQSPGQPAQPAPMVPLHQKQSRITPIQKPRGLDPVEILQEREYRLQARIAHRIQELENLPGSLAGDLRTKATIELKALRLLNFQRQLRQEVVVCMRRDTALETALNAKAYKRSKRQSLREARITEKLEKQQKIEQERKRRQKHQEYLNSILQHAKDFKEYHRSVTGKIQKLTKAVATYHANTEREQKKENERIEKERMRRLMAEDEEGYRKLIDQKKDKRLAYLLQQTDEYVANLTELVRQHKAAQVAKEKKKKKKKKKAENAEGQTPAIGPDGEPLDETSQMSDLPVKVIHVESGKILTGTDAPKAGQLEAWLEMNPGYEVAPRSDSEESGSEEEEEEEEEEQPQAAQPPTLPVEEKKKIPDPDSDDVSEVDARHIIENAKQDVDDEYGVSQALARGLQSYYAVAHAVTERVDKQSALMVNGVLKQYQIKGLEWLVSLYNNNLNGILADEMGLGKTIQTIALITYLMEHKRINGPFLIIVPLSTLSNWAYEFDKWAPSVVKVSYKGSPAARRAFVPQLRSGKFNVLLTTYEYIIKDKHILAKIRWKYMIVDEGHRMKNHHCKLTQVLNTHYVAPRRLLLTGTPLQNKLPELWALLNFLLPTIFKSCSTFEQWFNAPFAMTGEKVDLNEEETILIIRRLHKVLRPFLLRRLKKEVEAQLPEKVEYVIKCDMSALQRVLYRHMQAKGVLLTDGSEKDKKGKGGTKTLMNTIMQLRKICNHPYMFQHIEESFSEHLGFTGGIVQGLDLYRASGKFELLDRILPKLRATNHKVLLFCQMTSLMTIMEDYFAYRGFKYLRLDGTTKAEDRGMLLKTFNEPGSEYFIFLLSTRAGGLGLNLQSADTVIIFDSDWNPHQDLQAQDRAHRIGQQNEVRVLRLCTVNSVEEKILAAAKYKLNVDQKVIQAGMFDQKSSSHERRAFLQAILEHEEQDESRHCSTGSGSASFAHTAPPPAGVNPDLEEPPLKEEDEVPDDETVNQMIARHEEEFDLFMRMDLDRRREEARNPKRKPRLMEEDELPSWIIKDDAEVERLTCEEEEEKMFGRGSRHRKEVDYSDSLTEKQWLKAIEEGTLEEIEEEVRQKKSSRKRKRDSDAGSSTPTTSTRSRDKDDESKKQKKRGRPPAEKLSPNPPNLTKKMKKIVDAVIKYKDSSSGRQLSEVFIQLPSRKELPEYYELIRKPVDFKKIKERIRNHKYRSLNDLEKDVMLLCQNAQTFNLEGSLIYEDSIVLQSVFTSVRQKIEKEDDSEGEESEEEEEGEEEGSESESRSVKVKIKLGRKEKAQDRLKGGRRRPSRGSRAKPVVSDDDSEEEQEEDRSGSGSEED
T1 sequence (P51531 whole entry): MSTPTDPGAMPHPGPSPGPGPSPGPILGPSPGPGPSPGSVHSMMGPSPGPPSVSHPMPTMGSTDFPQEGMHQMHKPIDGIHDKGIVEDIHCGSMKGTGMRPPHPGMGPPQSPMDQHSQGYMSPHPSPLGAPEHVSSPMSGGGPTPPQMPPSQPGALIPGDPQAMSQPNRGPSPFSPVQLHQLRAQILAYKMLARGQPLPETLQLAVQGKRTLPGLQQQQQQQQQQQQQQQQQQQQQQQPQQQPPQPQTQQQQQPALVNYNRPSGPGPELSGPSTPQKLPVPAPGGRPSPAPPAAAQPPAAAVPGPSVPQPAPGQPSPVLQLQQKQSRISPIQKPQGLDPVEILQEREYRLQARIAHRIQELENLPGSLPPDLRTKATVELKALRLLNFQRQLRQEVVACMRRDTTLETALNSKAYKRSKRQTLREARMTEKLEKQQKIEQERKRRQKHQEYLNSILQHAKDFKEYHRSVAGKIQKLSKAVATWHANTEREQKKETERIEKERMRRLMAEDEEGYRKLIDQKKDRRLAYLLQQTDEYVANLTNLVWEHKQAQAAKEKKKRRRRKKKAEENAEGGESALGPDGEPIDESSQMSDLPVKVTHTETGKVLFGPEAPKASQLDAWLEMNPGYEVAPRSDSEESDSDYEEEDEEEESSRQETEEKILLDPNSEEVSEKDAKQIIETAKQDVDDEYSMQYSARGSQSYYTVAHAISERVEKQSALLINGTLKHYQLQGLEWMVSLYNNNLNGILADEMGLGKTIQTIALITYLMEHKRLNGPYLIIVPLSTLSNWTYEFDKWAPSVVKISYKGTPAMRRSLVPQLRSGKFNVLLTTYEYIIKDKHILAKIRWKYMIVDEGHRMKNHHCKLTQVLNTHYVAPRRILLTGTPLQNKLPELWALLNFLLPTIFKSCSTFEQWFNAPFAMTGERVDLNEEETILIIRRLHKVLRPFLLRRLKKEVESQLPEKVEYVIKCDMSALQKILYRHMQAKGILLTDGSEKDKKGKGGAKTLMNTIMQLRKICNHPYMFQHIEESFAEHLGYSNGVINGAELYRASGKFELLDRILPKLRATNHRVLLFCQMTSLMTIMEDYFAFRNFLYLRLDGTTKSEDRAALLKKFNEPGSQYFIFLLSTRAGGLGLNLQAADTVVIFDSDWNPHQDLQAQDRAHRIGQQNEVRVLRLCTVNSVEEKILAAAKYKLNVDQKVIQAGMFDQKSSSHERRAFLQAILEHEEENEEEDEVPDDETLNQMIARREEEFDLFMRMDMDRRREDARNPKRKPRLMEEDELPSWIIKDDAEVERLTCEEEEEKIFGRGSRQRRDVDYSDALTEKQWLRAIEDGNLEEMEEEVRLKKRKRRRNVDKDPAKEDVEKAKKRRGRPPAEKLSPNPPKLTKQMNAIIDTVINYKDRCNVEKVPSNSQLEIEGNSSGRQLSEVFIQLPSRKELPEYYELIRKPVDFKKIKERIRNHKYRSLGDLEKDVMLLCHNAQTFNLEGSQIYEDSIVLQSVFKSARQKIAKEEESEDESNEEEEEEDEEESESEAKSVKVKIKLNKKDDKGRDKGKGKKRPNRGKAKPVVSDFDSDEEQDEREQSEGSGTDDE

SMILES | DC50 (SMARCA2) | Dmax (SMARCA2) | DC50 (SMARCA4) | Dmax (SMARCA4)
CC[C@]12CNc3nnc(-c4cccc(C)c4O)cc3N1C[C@H](Oc1cnc(CN3CCC(c4ccc5c(c4)C(=O)N([C@H]4CCC(=O)NC4=O)C5)CC3)c(C)c1)C2 [Example 97, (S)-3-(6-(1-((5-(((6aS,8R)-6a-ethyl-2-(2-hydroxy-3-methylphenyl)-5,6,6a,7,8,9-hexahydropyrrolo[1′,2′:4,5]pyrazino[2,3-c]pyridazin-8-yl)oxy)-3-methylpyridin-2-yl)methyl)piperidin-4-yl)-1-oxoisoindolin-2-yl)piperidine-2,6-dione] | < 0.1 µM | > 75% | < 0.1 µM | 50 to 75%
O=C1CCC(N2Cc3ccc(N4CCN(Cc5ccc(S[C@@H]6C[C@@H]7CNc8nnc(-c9cc(F)cc(F)c9O)cc8N7C6)cc5)CC4)cc3C2=O)C(=O)N1 (stereo partly shown) [Example 32] | < 0.1 µM | > 75% | < 0.1 µM | 50 to 75%
O=C1CCC(N2Cc3ccc(N4CCN(Cc5ccc(O[C@@H]6C[C@@H]7CNc8nnc(-c9cc(F)cc(F)c9O)cc8N7C6)cn5)CC4)cc3C2=O)C(=O)N1 (stereo partly drawn) [Example 3, 3-(6-(4-((5-(((6aR,8R)-2-(3,5-difluoro-2-hydroxyphenyl)-5,6,6a,7,8,9-hexahydropyrrolo[1′,2′:4,5]pyrazino[2,3-c]pyridazin-8-yl)oxy)pyridin-2-yl)methyl)piperazin-1-yl)-1-oxoisoindolin-2-yl)piperidine-2,6-dione] | < 0.1 µM | > 75% | < 0.1 µM | 50 to 75%
Cc1cc(O[C@@H]2C[C@@H]3CNc4nnc(-c5cccc(Cl)c5O)cc4N3C2)ccc1CN1CCN(c2ccc3c(c2)C(=O)N(C2CCC(=O)NC2=O)C3)CC1 (stereo partly drawn) [Example 10, 3-(6-(4-(4-(((6aR,8R)-2-(3-chloro-2-hydroxyphenyl)-5,6,6a,7,8,9-hexahydropyrrolo[1′,2′:4,5]pyrazino[2,3-c]pyridazin-8-yl)oxy)-2-methylbenzyl)piperazin-1-yl)-1-oxoisoindolin-2-yl)piperidine-2,6-dione] | < 0.1 µM | > 75% | > 1 µM | 50 to 75%
CC[C@@]12CNc3nnc(-c4cccc(F)c4O)cc3N1C[C@H](Oc1cnc(CN3CCC(c4ccc5c(c4)C(=O)N([C@H]4CCC(=O)NC4=O)C5)CC3)c(F)c1)C2 [Example 101, (S)-3-(6-(1-((5-(((6aR,8R)-6a-ethyl-2-(3-fluoro-2-hydroxyphenyl)-5,6,6a,7,8,9-hexahydropyrrolo[1′,2′:4,5]pyrazino[2,3-c]pyridazin-8-yl)oxy)-3-fluoropyridin-2-yl)methyl)piperidin-4-yl)-1-oxoisoindolin-2-yl)piperidine-2,6-dione] | < 0.1 µM | > 75% | 0.1 to 1 µM | < 50%
O=C1CCC(N2Cc3ccc(N4CCN(Cc5ccc(O[C@@H]6C[C@@H]7CNc8nnc(-c9cc(F)cc(F)c9O)cc8N7C6)cc5C(F)(F)F)CC4)cc3C2=O)C(=O)N1 (stereo partly drawn) [Example 15, 3-(6-(4-(4-(((6aR,8R)-2-(3,5-difluoro-2-hydroxyphenyl)-5,6,6a,7,8,9-hexahydropyrrolo[1′,2′:4,5]pyrazino[2,3-c]pyridazin-8-yl)oxy)-2-(trifluoromethyl)benzyl)piperazin-1-yl)-1-oxoisoindolin-2-yl)piperidine-2,6-dione] | < 0.1 µM | > 75% | > 1 µM | 50 to 75%
Cc1cc(CN2CCN(c3ccc4c(c3)C(=O)N(C3CCC(=O)NC3=O)C4)CC2)cnc1O[C@@H]1C[C@@H]2CNc3nnc(-c4cc(F)cc(F)c4O)cc3N2C1 (stereo partly drawn) [Example 31, 3-(6-(4-((6-(((6aR,8R)-2-(3,5-difluoro-2-hydroxyphenyl)-5,6,6a,7,8,9-hexahydropyrrolo[1′,2′:4,5]pyrazino[2,3-c]pyridazin-8-yl)oxy)-5-methylpyridin-3-yl)methyl)piperazin-1-yl)-1-oxoisoindolin-2-yl)piperidine-2,6-dione] | < 0.1 µM | > 75% | < 0.1 µM | > 75%
CC[C@]12CNc3nnc(-c4cccc(F)c4O)cc3N1C[C@H](Oc1cnc(CN3CCC(c4ccc5c(c4)C(=O)N([C@H]4CCC(=O)NC4=O)C5)CC3)c(C)c1)C2 [Example 104, (S)-3-(6-(1-((5-(((6aS,8R)-6a-ethyl-2-(3-fluoro-2-hydroxyphenyl)-5,6,6a,7,8,9-hexahydropyrrolo[1′,2′:4,5]pyrazino[2,3-c]pyridazin-8-yl)oxy)-3-methylpyridin-2-yl)methyl)piperidin-4-yl)-1-oxoisoindolin-2-yl)piperidine-2,6-dione] | < 0.1 µM | > 75% | < 0.1 µM | 50 to 75%
COc1cc(O[C@@H]2C[C@@H]3CNc4nnc(-c5cc(F)cc(F)c5O)cc4N3C2)ccc1CN1CCN(c2ccc3c(c2)C(=O)N(C2CCC(=O)NC2=O)C3)CC1 (stereo partly drawn) [Example 12, 3-(6-(4-(4-(((6aR,8R)-2-(3,5-difluoro-2-hydroxyphenyl)-5,6,6a,7,8,9-hexahydropyrrolo[1′,2′:4,5]pyrazino[2,3-c]pyridazin-8-yl)oxy)-2-methoxybenzyl)piperazin-1-yl)-1-oxoisoindolin-2-yl)piperidine-2,6-dione] | < 0.1 µM | > 75% | < 0.1 µM | > 75%

The remaining lines, values ahead:

DC50 (SMARCA2) | Dmax (SMARCA2) | DC50 (SMARCA4) | Dmax (SMARCA4) | SMILES
< 0.1 µM | > 75% | 0.1 to 1 µM | < 50% | Cc1nc(CN2CCN(c3ccc4c(c3)C(=O)N(C3CCC(=O)NC3=O)C4)CC2)cnc1O[C@H]1CN2c3cc(-c4cccc(F)c4O)nnc3NC[C@]2(C(F)F)C1 (stereo partly drawn) [Example 40, 3-(6-(4-((5-(((6aS,8R)-6a-(difluoromethyl)-2-(3-fluoro-2-hydroxyphenyl)-5,6,6a,7,8,9-hexahydropyrrolo[1′,2′:4,5]pyrazino[2,3-c]pyridazin-8-yl)oxy)-6-methylpyrazin-2-yl)methyl)piperazin-1-yl)-1-oxoisoindolin-2-yl)piperidine-2,6-dione]
< 0.1 µM | 50 to 75% | > 1 µM | < 50% | Cc1c(O[C@H]2CN3c4cc(-c5cccc(F)c5O)nnc4NC[C@@]3(C(F)F)C2)cnc(CN2CCN(c3ccc4c(c3)C(=O)N([C@H]3CCC(=O)NC3=O)C4)CC2)c1F [Example 45, (S)-3-(6-(4-((5-(((6aR,8R)-6a-(difluoromethyl)-2-(3-fluoro-2-hydroxyphenyl)-5,6,6a,7,8,9-hexahydropyrrolo[1′,2′:4,5]pyrazino[2,3-c]pyridazin-8-yl)oxy)-3-fluoro-4-methylpyridin-2-yl)methyl)piperazin-t-yl)-1-oxoisoindolin-2-yl)piperidine-2,6-dione]
< 0.1 µM | > 75% | < 0.1 µM | > 75% | C[C@]12CNc3nnc(-c4cccc(F)c4O)cc3N1C[C@H](Oc1cc(C#N)c(CN3CCN(c4ccc5c(c4)C(=O)N([C@H]4CCC(=O)NC4=O)C5)CC3)cn1)C2 [Example 76, 5-((4-(2-((S)-2,6-dioxopiperidin-3-yl)-3-oxoisoindolin-5-yl)piperazin-1-yl)methyl)-2-(((6aS,8R)-2-(3-fluoro-2-hydroxyphenyl)-6a-methyl-5,6,6a,7,8,9-hexahydropyrrolo[1′,2′:4,5]pyrazino[2,3-c]pyridazin-8-yl)oxy)isonicotinonitrile]
< 0.1 µM | > 75% | < 0.1 µM | 50 to 75% | Cc1nc(CN2CCC(c3ccc4c(c3)C(=O)N([C@H]3CCC(=O)NC3=O)C4)CC2)cnc1O[C@H]1CN2c3cc(-c4cccc(F)c4O)nnc3NC[C@]2(C(F)F)C1 [Example 91, (S)-3-(6-(1-((5-(((6aS,8R)-6a-(difluoromethyl)-2-(3-fluoro-2-hydroxyphenyl)-5,6,6a,7,8,9-hexahydropyrrolo[1′,2′:4,5]pyrazino[2,3-c]pyridazin-8-yl)oxy)-6-methylpyrazin-2-yl)methyl)piperidin-4-yl)-1-oxoisoindolin-2-yl)piperidine-2,6-dione]
> 1 µM | 50 to 75% | > 1 µM | < 50% | CN(c1ccc(CN2CCN(c3ccc4c(c3)C(=O)N(C3CCC(=O)NC3=O)C4)CC2)cn1)[C@@H]1C[C@@H]2CNc3nnc(-c4cccc(F)c4O)cc3N2C1 (stereo partly drawn) [Example 35, 3-(6-(4-((6-(((6aR,8R)-2-(3-fluoro-2-hydroxyphenyl)-5,6,6a,7,8,9-hexahydro-pyrrolo[1′,2′:4,5]pyrazino[2,3-c]pyridazin-8-yl)(methyl)amino)pyridin-3-yl)methyl)piperazin-1-yl)-1-oxoisoindolin-2-yl)piperidine-2,6-dione]
< 0.1 µM | > 75% | 0.1 to 1 µM | < 50% | CC[C@@]12CNc3nnc(-c4cccc(F)c4O)cc3N1C[C@H](Oc1ncc(CN3CCC(c4ccc5c(c4)C(=O)N([C@H]4CCC(=O)NC4=O)C5)CC3)c(C)n1)C2 [Example 105, (S)-3-(6-(1-((2-(((6aR,8R)-6a-ethyl-2-(3-fluoro-2-hydroxyphenyl)-5,6,6a, 7,8,9-hexahydropyrrolo[1′,2′:4,5]pyrazino[2,3-c]pyridazin-8-yl)oxy)-4-methylpyrimidin-5-yl)methyl)piperidin-4-yl)-1-oxoisoindolin-2-yl)piperidine-2,6-dione]
< 0.1 µM | > 75% | < 0.1 µM | 50 to 75% | O=C1CCC(N2Cc3ccc(N4CCN(Cc5cnc(O[C@H]6CN7c8cc(-c9cccc(F)c9O)nnc8NC[C@@]7(C(F)F)C6)c(Cl)c5)CC4)cc3C2=O)C(=O)N1 (stereo partly drawn) [Example 85, 3-(6-(4-((5-chloro-6-(((6aR,8R)-6a-(difluoromethyl)-2-(3-fluoro-2-hydroxyphenyl)-5,6,6a,7,8,9-hexahydropyrrolo[1′,2′:4,5]pyrazino[2,3-c]pyridazin-8-yl)oxy)pyridin-3-yl)methyl)piperazin-1-yl)-1-oxoisoindolin-2-yl)piperidine-2,6-dione]
